According to US20040037806A1, “Aldosterone blocker therapy to prevent or treat inflammation-related disorders” (Pharmacia Corporation, priority 2002, published 2004):
Entries after “also recorded” stand apart in the source; their conditions may differ.

Columns and labels:
Assay type in all cases: in vivo, rat
[1] = tested on: Intercellular Adhesion Molecule-1 (ICAM-1); test: Assay C: ICAM-1 mRNA, TaqMan; conditions: aldosterone+salt alone or with eplerenone 100 mg/kg/day; 7, 14, 30 days
Protocol: (§1) The procedure of Assay B was expanded upon in a further study. […] Myocardial tissue from animals in each treatment group was examined after 7, 14, or 30 days of treatment.
(§2) Potassium chloride supplementation was added to the saline solution in order to prevent the potential hypokalemia associated with aldosterone excess.
(§3) Treatment At the time of the surgery, an Alzet 2002 osmotic minipump (Alza Corp., Palo Alto, Calif.) containing either vehicle (9% ethanol/87% propylene glycol/4% dH2O) or 1.0 mg/mL d-aldosterone (Sigma Chemical, St. Louis, Mo.) was inserted subcutaneously at the nape of the neck. Aldosterone was administered at a dose of 0.75 µg/hour. […]
(§4) The fluorogenic 5′-nuclease assay (TaqMan PCR) using Applied Biosystems' 7700 Sequence Detection System (Applied Biosystems, Foster City, Calif.) allowed for real time detection/quantitation of a specific gene by monitoring the increase in fluorescence of a gene-specific, dye-labeled oligonucleotide probe. […] When the probe was annealed to the target gene, fluorescence of 6FAM was prevented by the close proximity of TAMRA. The exonuclease activity of Taq polymerase released the dyes from the oligonucleotide probe by displacing the probe from the target sequence resulting in fluorescence excitation in direct proportion to the amount of target message present. […]

[2] = Assay C: histopathologic analysis, semi-quantitative myocardial injury score 0 to 4; conditions: 7, 14 and 30 days; aldosterone+salt alone or with eplerenone 100 mg/kg/day
Protocol: The procedure of Assay B was expanded upon in a further study. […] Myocardial tissue from animals in each treatment group was examined after 7, 14, or 30 days of treatment. […] Lesions were preceded by the expression and progressive upregulation of proinflammatory molecules. […] Prior to surgery the animals were individually weighed and placed in one of the following groups: […] Potassium chloride supplementation was added to the saline solution in order to prevent the potential hypokalemia associated with aldosterone excess. Treatment At the time of the surgery, an Alzet 2002 osmotic minipump (Alza Corp., Palo Alto, Calif.) containing either vehicle (9% ethanol/87% propylene glycol/4% dH2O) or 1.0 mg/mL d-aldosterone (Sigma Chemical, St. Louis, Mo.) was inserted subcutaneously at the nape of the neck. Aldosterone was administered at a dose of 0.75 µg/hour. […] Animals were sacrificed from each group (n=8-13) after 7, 14, or 30 days of treatment. The equatorial regions of the heart were routinely processed into paraffin with an automated tissue processor (Hypercenter XP, Shandon/Lipshaw Inc., Pittsburgh, Pa.) and embedded into fresh paraffin apical side down (Shandon Embedding Center, Shandon/Lipshaw Inc.). […] Semi-quantification of myocardial injury was performed as described previously with minor modifications (7). […]

[3] = tested on: cyclooxygenase-2 (COX-2); test: Assay A: cyclooxygenase-2 immunostaining of hearts; conditions: angiotensin II-infused, saline-drinking Wistar rats, eplerenone 100 mpk, aldosterone replacement in adrenalectomized rats
[4] = tested on: osteopontin; test: Assay C: Osteopontin mRNA, TaqMan; conditions: 7, 14, 30 days; aldosterone+salt alone or with eplerenone 100 mg/kg/day
Protocol: as §1, §2, §3, §4

[5] = tested on: Monocyte Chemoattractant Protein-1 (MCP-1); test: Assay C: MCP-1 mRNA, TaqMan; conditions: 7, 14, 30 days; aldosterone+salt alone or with eplerenone 100 mg/kg/day
Protocol: as §1, §2, §3, §4

Row | SMILES | ICAM-1 mRNA expression in myocardium [1] | Myocardial tissue damage (histopathology) [2] | Cyclooxygenase-2 expression in the heart (immunostaining) [3] | Osteopontin mRNA expression in myocardium [4] | MCP-1 mRNA expression in myocardium [5] | Cyclooxygenase-2 expression in the heart (immunostaining) ([3]; listed as Eplerenone)
1 | C[C@]12CCC(=O)C=C1CC[C@@H]1[C@@H]2[C@@H](O)C[C@]2(C=O)[C@@H](C(=O)CO)CC[C@@H]12 [aldosterone] | upregulated at day 14 and 30 | No vascular or myocardial lesions; also recorded: focal arterial and myocardial alterations were observed starting at 14 days | restored the presence of cycloxygenase-2 in coronary arteries | markedly upregulated | significantly increased | 
2 | COC(=O)[C@@H]1CC2=CC(=O)CC[C@]2(C)[C@@]23O[C@@H]2C[C@@]2(C)[C@@H](CC[C@@]24CCC(=O)O4)[C@H]13 [eplerenone] | significantly reduced; also recorded: inhibition of early time-course expression of myocardial ICAM-1 and VCAM-1 | markedly attenuated myocardial injury at all time points | prevention by eplerenone of induction of COX-2 expression | significantly reduced; also recorded: inhibition of early time-course expression of myocardial osteopontin | significantly reduced; also recorded: inhibition of early time-course expression of myocardial MCP-1 | markedly reduced and in most cases completely prevented the expression of cycloxygenase-2
